Measurements published in patent US20260297060A1, “COMPOUNDS FOR THE DEGRADATION OF MUTANT BRAF” (C4 THERAPEUTICS, INC., priority 2023, published 2026).

Test system: A375 human melanoma xenografts
Assay: Example 9 efficacy study Part I in A375 human melanoma xenografts (tumor volume, T/C, TGI)
Type: in vivo, BALB/c nude mice
Conditions: 10 mg/kg, p.o., BID × 14 days; for Tumor Size on PG-D14: Mean ± SEM; for TGI (Tumor Growth Inhibition): PG-D14; for T/C: PG-D14, treated/control average tumor volume
Description: For efficacy study Part I, agents were tested in the A375 human melanoma xenografts. Compound 218 and Compound 157 were administered to BALB/c nude mice bearing A375 xenografts from day 0 and dosed twice a day (BID) for 14 days. Compound 218 and Compound 157 were dosed at 10 mg/kg via p.o.. Dabrafenib was administered from day 1 daily (QD) for 14 days and dosed at 100 mg/kg via p.o..
The A375 tumor cells were maintained in vitro in DMEM medium supplemented with […] and 1% Penicillin-Streptomycin at 37° C. in an atmosphere of 5% CO2 in air. The tumor cells were routinely subcultured twice weekly. The cells growing in an exponential growth phase were harvested and counted for tumor inoculation.
Each mouse was inoculated subcutaneously at the right flank with A375 cells (5×10^6) in 0.2 mL of PBS supplemented with Matrigel (PBS: Matrigel=1:1) for tumor development. Animals were grouped for the treatment when the average tumor volume reached 243 mm^3 for efficacy study part I and 413 mm^3 for the PK and PD study part I on day 15, and 271 mm^3 for efficacy part II and 443 mm^3 for the PK and PD part II on day 18, and 463 mm^3 for the PK and PD study part III on day 21. The test articles administration and the animal numbers in each group are shown in the above experimental tables.
Prior to the onset of drug treatment, mice were measured for tumor size in two dimensions using a caliper, and the tumor volume (mm^3) was calculated using formula V=0.5 a×b^2 where a and b are the long and short diameters of the tumor in mm, respectively. Mice were randomized into different treatment groups based on the tumor volume.
The major endpoint was to see if the tumor growth could be delayed or mice could be cured. The tumor size was then used for calculations of T/C value. The T/C value (in percent) is an indication of antitumor effectiveness; T and C are the mean volumes of the treated and control groups, respectively on specified day.
TGI was calculated for each group using the formula: TGI (%)=[1−(Ti−T0)/(Ci−C0)]×100; Ti is the average tumor volume of a treatment group on a given day, To is the average tumor volume of the treatment group on the day of treatment start, Ci is the average tumor volume of the vehicle control group on the same day with Ti, and C0 is the average tumor volume of the vehicle group on the day of treatment start.

SMILES | Tumor Volume Trace Over Time (Day 0, Mean ± SEM) [mm^3] | Tumor Volume Trace Over Time (Day 3, Mean ± SEM) [mm^3] | Tumor Volume Trace Over Time (Day 7, Mean ± SEM) [mm^3] | Tumor Volume Trace Over Time (Day 10, Mean ± SEM) [mm^3] | Tumor Volume Trace Over Time (Day 14, Mean ± SEM) [mm^3] | Tumor Size on PG-D14 [mm^3] | TGI (Tumor Growth Inhibition) [%] | T/C [%]
CO[C@H]1CCN(S(=O)(=O)Nc2ccc(F)c(Oc3ccc4ncn([C@H]5COC6(CCN(C7CC8(C7)CN(c7cc9c(cc7F)c(N7CCC(=O)NC7=O)nn9C)C8)CC6)C5)c(=O)c4c3)c2C#N)C1 [Compound 157, (3S)-N-[2-cyano-3-[3-[(3R)-8-[2-[3-(2,4-dioxohexahydropyrimidin-1-yl)-5-fluoro-1-methyl-indazol-6-yl]-2-azaspiro[3.3]heptan-6-yl]-1-oxa-8-azaspiro[4.5]decan-3-yl]-4-oxo-quinazolin-6-yl]oxy-4-fluoro-phenyl]-3-methoxy-pyrrolidine-1-sulfonamide] | 243 ± 4 | 272 ± 12 | 191 ± 17 | 166 ± 15 | 183 ± 37 | 183 ± 37 | 105.48 | 13.68
CCN(C)S(=O)(=O)Nc1ccc(F)c(Oc2ccc3ncc(OC4CC5(CCN(C6CCC(c7cc8c(cc7F)c(N7CCC(=O)NC7=O)nn8C)CC6)CC5)C4)nc3c2)c1C#N (single isomer, unassigned) [Compound 218, 7-[2-cyano-3-[[ethyl(methyl)sulfamoyl]amino]-6-fluoro-phenoxy]-2-[[7-[4-[3-(2,4-dioxohexahydropyrimidin-1-yl)-5-fluoro-1-methyl-indazol-6-yl]cyclohexyl]-7-azaspiro[3.5]nonan-2-yl]oxy]quinoxaline] | 243 ± 5 | 240 ± 21 | 114 ± 9 | 80 ± 9 | 60 ± 8 | 60 ± 8 | 116.68 | 4.47
